Common to all, as to type: cell-based
For experiment [1], the target named is T1, pERK1/2 (Thr202/Tyr204), PANC-1 (KRAS G121D) (Homo sapiens, UniProt P01116, G12D).
T1 construct: pERK1/2 HTRF read-out
Nature of the experiment: Assay of intracellular pERK1/2 (Thr202/Tyr204) phosphorylation in PANC-1 cells (KRAS G12D). The following applies: pERK1/2, 2 days, read-out: PANC-1 (KRAS G12D) IC50. A digest of the protocol:
(§1)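 Cells (10000-12000/well) exposed to 3-fold compound dilutions for 2 days at 37 °C, then lysed; pERK1/2 (Thr202/Tyr204) measured by HTRF with d2 and cryptate antibodies, 665/615 nm ratio.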

Experiment [2] concerns the target T2, pERK1/2 (Thr202/Tyr204), NCI-1H358 (KRAS G12C) (Homo sapiens, UniProt P01116, G12C).
T2 construct: pERK1/2 HTRF read-out
Nature of the experiment: Assay of intracellular pERK1/2 (Thr202/Tyr204) phosphorylation in NCI-H358 cells (KRAS G12C). The note with it: pERK1/2, 2 days, read-out: NCI-H358 (KRAS G12C) IC50. A digest of the protocol: as §1

Experiment [3] deals with T3, pERK1/2 (Thr202/Tyr204), NCI-1H441 (KRAS G12V) (Homo sapiens, UniProt P01116, G12V).
T3 construct: pERK1/2 HTRF read-out
T3 sequence (P01116 1-188 isoform P01116-2 G12V): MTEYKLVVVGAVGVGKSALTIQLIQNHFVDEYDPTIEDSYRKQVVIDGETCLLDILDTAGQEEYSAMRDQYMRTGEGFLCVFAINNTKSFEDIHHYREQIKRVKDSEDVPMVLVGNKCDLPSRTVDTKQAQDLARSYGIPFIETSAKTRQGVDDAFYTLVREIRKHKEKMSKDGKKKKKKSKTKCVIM
The experiment in a line: Assay of intracellular pERK1/2 (Thr202/Tyr204) phosphorylation in NCI-H441 cells (KRAS G12V). The note with it: pERK1/2, 2 days, read-out: NCI-H441 (KRAS G12V) IC50. The gist of the method:
as §1

T1 sequence (P01116 1-188 isoform P01116-2 G12D): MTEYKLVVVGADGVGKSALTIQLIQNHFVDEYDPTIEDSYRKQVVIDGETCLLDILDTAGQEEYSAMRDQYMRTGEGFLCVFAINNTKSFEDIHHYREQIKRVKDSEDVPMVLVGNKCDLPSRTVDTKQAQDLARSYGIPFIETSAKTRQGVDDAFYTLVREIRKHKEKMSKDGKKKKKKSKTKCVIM
T2 sequence (P01116 1-188 isoform P01116-2 G12C): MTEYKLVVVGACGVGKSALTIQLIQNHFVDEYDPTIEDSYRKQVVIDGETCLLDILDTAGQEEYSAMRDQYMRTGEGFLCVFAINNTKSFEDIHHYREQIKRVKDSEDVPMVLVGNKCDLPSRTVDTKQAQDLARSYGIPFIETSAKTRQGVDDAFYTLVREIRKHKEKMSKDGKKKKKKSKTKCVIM

As for `[2H]C([2H])(Oc1nc2c3c(nc(-c4cc(N)cc(C)c4C(F)(F)F)c(F)c3n1)OCCN2C(C)c1cccnc1N)[C@@H]1CCC([2H])([2H])N1C([2H])([2H])[2H]` (single isomer, unassigned) [Compound 102, 3-((R or S)-1-(5-(5-amino-3-methyl-2-(trifluoromethyl)phenyl)-4-fluoro-2-(((S)-1-(methyl-d3)pyrrolidin-2-yl-5,5-d2)methoxy-d2)-8,9-dihydro-10H-7-oxa-1,3,6,10-tetraazacyclohepta[de]naphthalen-10-yl)ethyl)pyridin-2-amine], the concentration for half-maximal inhibition (IC50) is 38 nM in experiment [1], 0.8 nM in experiment [2] and 2 nM in experiment [3].
The corresponding values for `[2H]C([2H])(Oc1nc2c3c(nc(-c4cc(N)cc(C)c4C(F)(F)F)c(F)c3n1)OCCN2C(C)c1cccnc1N)[C@@H]1CCC([2H])([2H])N1C([2H])([2H])[2H]` (single isomer, unassigned) [Compound 103, 3-((R or S)-1-(5-(5-amino-3-methyl-2-(trifluoromethyl)phenyl)-4-fluoro-2-(((S)-1-(methyl-d3)pyrrolidin-2-yl-5,5-d2)methoxy-d2)-8,9-dihydro-10H-7-oxa-1,3,6,10-tetraazacyclohepta[de]naphthalen-10-yl)ethyl)pyridin-2-amine] are above 100 nM, 60 nM and above 100 nM.
The corresponding values for `Cc1cc(N)cc(-c2nc3c4c(nc(OC[C@@H]5CCCN5)nc4c2F)N(C(C)c2cccnc2N)CCO3)c1C(F)(F)F` (single isomer, unassigned) [Compound 106] are above 100 nM, above 100 nM and above 100 nM.
The corresponding values for `Cc1cc(N)cc(-c2nc3c4c(nc(N5CCC[C@H]5CO)nc4c2F)N(C(C)c2cccnc2N)CCO3)c1C(F)(F)F` (single isomer, unassigned) [Compound 107] are above 100 nM, 89 nM and above 100 nM.
On to `Cc1cc(N)cc(-c2nc3c4c(nc(OC[C@H]5CCCN5C)nc4c2F)N(C(C)c2cccnc2N)CCO3)c1C(F)(F)F` (single isomer, unassigned) [Compound 109, 3-((R or S)-1-(5-(5-amino-3-methyl-2-(trifluoromethyl)phenyl)-4-fluoro-2-(((R)-1-methylpyrrolidin-2-yl)methoxy)-8,9-dihydro-10H-7-oxa-1,3,6,10-tetraazacyclohepta[de]naphthalen-10-yl)ethyl)pyridin-2-amine], for which the figures for the IC50 in experiment [1], in experiment [2] and in experiment [3] were 41 nM, 0.9 nM and 2 nM, respectively.
The corresponding values for `Cc1cc(N)cc(-c2nc3c4c(nc(OC[C@H]5CCCN5C)nc4c2F)N(C(C)c2cccnc2N)CCO3)c1C(F)(F)F` (single isomer, unassigned) [Compound 110, 3-((R or S)-1-(5-(5-amino-3-methyl-2-(trifluoromethyl)phenyl)-4-fluoro-2-(((R)-1-methylpyrrolidin-2-yl)methoxy)-8,9-dihydro-10H-7-oxa-1,3,6,10-tetraazacyclohepta[de]naphthalen-10-yl)ethyl)pyridin-2-amine] are above 100 nM, above 100 nM and above 100 nM.
The corresponding values for `[2H]C1([2H])CC[C@@]2(C([2H])([2H])Oc3nc4c5c(nc(-c6cc(N)cc(C)c6C(F)(F)F)c(F)c5n3)OCCN4C(C)c3cccnc3N)C[C@@H](F)CN12` (single isomer, unassigned) [Compound 115, 3-((R or S)-1-(5-(5-amino-3-methyl-2-(trifluoromethyl)phenyl)-4-fluoro-2-(((2R,7aS)-2-fluorotetrahydro-1H-pyrrolizin-7a(5H)-yl-5,5-d2)methoxy-d2)-8,9-dihydro-10H-7-oxa-1,3,6,10-tetraazacyclohepta[de]naphthalen-10-yl)ethyl)pyridin-2-amine] are 0.9 nM, 0.2 nM and 0.2 nM.
For `[2H]C1([2H])CC[C@@]2(C([2H])([2H])Oc3nc4c5c(nc(-c6cc(N)cc(C)c6C(F)(F)F)c(F)c5n3)OCCN4C(C)c3cccnc3N)C[C@@H](F)CN12` (single isomer, unassigned) [Compound 116, 3-((R or S)-1-(5-(5-amino-3-methyl-2-(trifluoromethyl)phenyl)-4-fluoro-2-(((2R,7aS)-2-fluorotetrahydro-1H-pyrrolizin-7a(5H)-yl-5,5-d2)methoxy-d2)-8,9-dihydro-10H-7-oxa-1,3,6,10-tetraazacyclohepta[de]naphthalen-10-yl)ethyl)pyridin-2-amine], the half-maximal inhibitory concentration (IC50) in experiment [1] was 23 nM; in experiment [2], 4 nM; in experiment [3] it was 9 nM.
The corresponding values for `Cc1cc(N)cc(-c2nc3c4c(nc(OCC5CCOCC5)nc4c2F)N(C(C)c2cccnc2N)CCO3)c1C(F)(F)F` (single isomer, unassigned) [Compound 117, (R or S)-3-(1-(5-(5-amino-3-methyl-2-(trifluoromethyl)phenyl)-4-fluoro-2-((tetrahydro-2H-pyran-4-yl)methoxy)-8,9-dihydro-10H-7-oxa-1,3,6,10-tetraazacyclohepta[de]naphthalen-10-yl)ethyl)pyridin-2-amine] are above 100 nM, 26 nM and 36 nM.
The corresponding values for `Cc1cc(N)cc(-c2nc3c4c(nc(OCC5CCOCC5)nc4c2F)N([C@@H](C)c2cccnc2N)CCO3)c1C(F)(F)F` (single isomer, unassigned) [Compound 118, (R or S)-3-(1-(5-(5-amino-3-methyl-2-(trifluoromethyl)phenyl)-4-fluoro-2-((tetrahydro-2H-pyran-4-yl)methoxy)-8,9-dihydro-10H-7-oxa-1,3,6,10-tetraazacyclohepta[de]napthalen-10-yl)ethyl)pyridin-2-amine] are above 100 nM, above 100 nM and above 100 nM.
The corresponding values for `[2H]C1([2H])CC[C@@]2(C([2H])([2H])Oc3nc4c5c(nc(-c6cc(N)c(F)c(C)c6C(F)(F)F)c(F)c5n3)OCCN4C(C)c3cccnc3N)C[C@@H](F)CN12` (single isomer, unassigned) [Compound 124, 3-((R or S)-1-(5-(5-amino-4-fluoro-3-methyl-2-(trifluoromethyl)phenyl)-4-fluoro-2-(((2R,7aS)-2-fluorotetrahydro-1H-pyrrolizin-7a(5H)-yl-5,5-d2)methoxy-d2)-8,9-dihydro-10H-7-oxa-1,3,6,10-tetraazacyclohepta[de]naphthalen-10-yl)ethyl)pyridin-2-amine] are 1 nM, 0.1 nM and 0.3 nM.
Regarding `[2H]C1([2H])CC[C@@]2(C([2H])([2H])Oc3nc4c5c(nc(-c6cc(N)c(F)c(C)c6C(F)(F)F)c(F)c5n3)OCCN4[C@@H](C)c3cccnc3N)C[C@@H](F)CN12` (single isomer, unassigned) [Compound 125, 3-((R or S)-1-(5-(5-amino-4-fluoro-3-methyl-2-(trifluoromehtyl)phenyl)-4-fluoro-2-(((2R,7aS)-2-fluorotetrahydro-1H-pyrrolizin-7a(5H)-yl-5,5-d2)methoxy-d2)-8,9-dihydro-10H-7-oxa-1,3,6,10-tetraazacyclohepta[de]naphthalen-10-yl)ethyl)pyridin-2-amine], the IC50 in experiment [1] came to 57 nM; in experiment [2], 12 nM; in experiment [3], 40 nM.
Regarding `Cc1cc(N)cc(-c2nc3c4c(nc(OC[C@@]56CCCN5C[C@H](F)C6)nc4c2F)N(C(C)c2cccnn2)CCO3)c1C(F)(F)F` (single isomer, unassigned) [Compound 127, 3-(4-fluoro-2-(((2R,7aS)-2-fluorotetrahydro-1H-pyrrolizin-7a(5H)-yl)methoxy)-10-((R or S)-1-(pyridazin-3-yl)ethyl)-9,10-dihydro-8H-7-oxa-1,3,6,10-tetraazacyclohepta[de]naphthalen-5-yl)-5-methyl-4-(trifluoromethyl)aniline], the IC50 in experiment [1], in experiment [2] and in experiment [3] was above 100 nM throughout.
For the molecule `[2H]C1([2H])CC[C@@]2(C([2H])([2H])Oc3nc4c5c(nc(-c6cc(O)cc(Cl)c6C6CC6)c(F)c5n3)OCCN4[C@H](C)c3cccnc3N)C[C@@H](F)CN12` (single isomer, unassigned) [Compound 130, 3-(10-((R or S)-1-(2-aminopyridin-3-yl)ethyl)-4-fluoro-2-(((2R,7aS)-2-fluorotetrahydro-1H-pyrrolizin-7a(5H)-yl-5,5-d2)methoxy-d2)-9,10-dihydro-8H-7-oxa-1,3,6,10-tetraazacyclohepta[de]naphthalen-5-yl)-5-chloro-4-cyclopropylphenyl], the IC50 in experiment [1], in experiment [2] and in experiment [3] was above 100 nM throughout.
With `[2H]C1([2H])CC[C@@]2(C([2H])([2H])Oc3nc4c5c(nc(-c6cc(O)cc(Cl)c6C6CC6)c(F)c5n3)OCCN4C(C)c3cccnc3N)C[C@@H](F)CN12` (single isomer, unassigned) [Compound 131, 3-(10-((R or S)-1-(2-aminopyridin-3-yl)ethyl)-4-fluoro-2-(((2R,7aS)-2-fluorotetrahydro-1H-pyrrolizin-7a(5H)-yl-5,5-d2)methoxy-d2)-9,10-dihydro-8H-7-oxa-1,3,6,10-tetraazacyclohepta[de]naphthalen-5-yl)-5-chloro-4-cyclopropylphenol], the IC50 turned out to be 7 nM in experiment [1], 0.5 nM in experiment [2] and 1 nM in experiment [3].

A word on the IC50: it is the concentration at which inhibition is half-maximal.

Values taken from patent publication US20260356851A1, “TRICYCLIC COMPOUNDS AND USES THEREOF” (HUTCHMED LIMITED, priority 2023, published 2026).
